The values that follow come from patent publication US9550744B2, “Vitamin C prodrugs and uses thereof” (priority 2013, dated 2017).

For series [1] the following is noted: solubility in water, room temperature (23±0.5° C.).
Protocol: After the suspensions were allowed to settle, about 0.020 mL of each supernatant was added to a UV cuvette containing about 2.98 mL of Millipore H2O, and the UV absorption of each solution was measured. The concentration, SAQ, of each compound was determined using Beer's Law and the previously measured molar absorptivities (ε, L mol^−1cm^−1) of each compound in water where A is the absorbance (no units), b is the path length of the cuvette (cm) and c is the concentration (mol L^−1) of each compound in the supernatant. Beer's Law: A=εbc c=A/εb
For series [2] the following is noted: solubility in octanol, room temperature.
Protocol: Lipid solubility (SLIPID): Each compound (50-100 mg) was stirred at rt in four test tubes containing 2 or 3 mL of isopropyl myristate (IPM) or octanol (OCT) overnight. The saturated suspensions were filtered and about 0.020 mL of each filtrate was diluted with 5 or 10 mL of acetonitrile (ACN). The UV absorbances of the diluted filtrates were measured and the concentrations of each compound in either IPM (SIPM) or OCT (SOCT) were determined using Beer's Law as above but using previously measured ε of each compound in ACN.
The solubilities in the lipid, SOCT or SIPM, could also then be calculated from KLIPID:AQ=SLIPID/SAQ.
The nature of series [3]: Hydrolysis at pH 10.0 followed by iodine titration. Format: physicochemical. As to conditions: pH 10.0, iodine titration with starch indicator. As for the experimental part: If no free enediol is present, the excess iodine reacts with a starch indicator to give a blue color. During the titration, as iodine solution was added to the prodrug solution, a blue color formed initially but faded as the free enediol was released by hydrolysis of the prodrug and the iodine was reduced to iodide.

On to `CC(=O)OCOC1=C(OC(C)=O)C(=O)OC1C(O)CO` (centres unmarked) [2-AcC1-3-SMC1 ascorbic acid], for which the “log SAQ” value in series [1] worked out at 2.05. The “log SOCT” value in series [2] was 1.66.
For the compound `CC(=O)OCOC1=C(OC(C)=O)C(=O)OC1C1COC(C)(C)O1` [2-AcC1-3-SMC1 ascorbic acid acetonide, 5,6-Isopropylidene-3-O-(acetyloxymethyl)-2-O-acetyl-L-ascorbic acid], in series [1], the “log SAQ” value was determined as 1.56. Also, the “log SOCT” value in series [2] turned out to be 1.55.
In the case of `CCC(=O)OCOC1=C(OC(=O)CC)C(=O)OC1C1COC(C)(C)O1` (centres unmarked) [2-ethylcarbonyl-3-ethylcarbonyloxymethyl-5,6-isopropylidene ascorbic acid], the “theoretical amount of ascorbic acid acetonide formed from hydrolysis of the prodrug” value in series [3] was 95.7%.
